In patent US20200079793A1, “COMPOUNDS AND METHODS FOR MODULATING ADENOSINE A2B RECEPTOR AND ADENOSINE A2A RECEPTOR” (CORVUS PHARMACEUTICALS, INC., priority 2018, published 2020) one finds IC50 data, which are given here for 17 compounds.

Experiment [1] has as its target T1, A1R (Homo sapiens, UniProt P30542).
T1 sequence (P30542 1-326): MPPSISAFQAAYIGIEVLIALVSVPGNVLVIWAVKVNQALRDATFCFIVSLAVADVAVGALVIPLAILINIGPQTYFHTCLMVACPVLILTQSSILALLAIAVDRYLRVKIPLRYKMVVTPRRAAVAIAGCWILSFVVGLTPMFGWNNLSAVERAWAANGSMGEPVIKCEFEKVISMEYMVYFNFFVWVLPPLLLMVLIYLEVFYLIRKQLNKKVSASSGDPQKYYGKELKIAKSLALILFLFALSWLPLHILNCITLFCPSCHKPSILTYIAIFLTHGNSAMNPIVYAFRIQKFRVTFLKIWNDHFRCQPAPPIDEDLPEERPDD
The experiment can be described thus: Activity assay of adenosine receptor modulators, A1R cAMP (Table 1). The format is cell-based. Here is the method: (§1) Compounds (e.g., adenosine receptor modulators) were tested for its biological activity. The assay results in Table 1 indicate (+ means >1 μM; ++ means 100 nM to 1 μM; +++ means <100 nM).

In experiment [2] the target is T2, Adenosine A2B Receptor (Homo sapiens, UniProt P29275).
T2 sequence (P29275 1-332): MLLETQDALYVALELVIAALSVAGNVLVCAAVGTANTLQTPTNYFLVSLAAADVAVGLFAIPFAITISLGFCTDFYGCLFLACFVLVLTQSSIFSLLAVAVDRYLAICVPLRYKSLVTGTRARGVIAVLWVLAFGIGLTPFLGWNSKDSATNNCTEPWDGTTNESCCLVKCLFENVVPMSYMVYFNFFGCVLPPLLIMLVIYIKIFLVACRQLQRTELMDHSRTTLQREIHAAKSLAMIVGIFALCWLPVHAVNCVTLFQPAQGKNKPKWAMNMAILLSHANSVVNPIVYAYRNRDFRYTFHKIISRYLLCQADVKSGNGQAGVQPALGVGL
The experiment can be described thus: Activity assay of adenosine receptor modulators, Adenosine A2B Receptor (Table 1). The format is biochemical. To be noted: cAMP; read-out: A2BR cAMP IC50. Here is the method:
as §1

Experiment [3] deals with T3, A3R (Homo sapiens, UniProt P0DMS8).
T3 sequence (P0DMS8 1-318): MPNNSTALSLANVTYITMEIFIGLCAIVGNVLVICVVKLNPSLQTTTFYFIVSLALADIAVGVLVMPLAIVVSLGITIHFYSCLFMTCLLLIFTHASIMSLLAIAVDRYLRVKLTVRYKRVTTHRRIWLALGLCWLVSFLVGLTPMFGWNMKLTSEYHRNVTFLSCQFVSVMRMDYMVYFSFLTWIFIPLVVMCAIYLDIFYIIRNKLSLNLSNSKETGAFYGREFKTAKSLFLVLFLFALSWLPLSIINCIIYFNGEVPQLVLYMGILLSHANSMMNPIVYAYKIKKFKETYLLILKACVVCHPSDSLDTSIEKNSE
The experiment can be described thus: Activity assay of adenosine receptor modulators, A3R cAMP (Table 1). The format is cell-based. The procedure: as §1

The target in experiment [4] is Adenosine A2A Receptor (Homo sapiens, UniProt P29274). The experiment can be described thus: Activity assay of adenosine receptor modulators, Adenosine A2A Receptor (Table 1). The format is biochemical. To be noted: cAMP; read-out: A2AR cAMP IC50. The procedure:
as §1

A value given as a limit tells only on which side of the number the result lay.

One may read the IC50 as the concentration that gives 50% inhibition.

Sequence of Adenosine A2A Receptor (P29274 whole entry): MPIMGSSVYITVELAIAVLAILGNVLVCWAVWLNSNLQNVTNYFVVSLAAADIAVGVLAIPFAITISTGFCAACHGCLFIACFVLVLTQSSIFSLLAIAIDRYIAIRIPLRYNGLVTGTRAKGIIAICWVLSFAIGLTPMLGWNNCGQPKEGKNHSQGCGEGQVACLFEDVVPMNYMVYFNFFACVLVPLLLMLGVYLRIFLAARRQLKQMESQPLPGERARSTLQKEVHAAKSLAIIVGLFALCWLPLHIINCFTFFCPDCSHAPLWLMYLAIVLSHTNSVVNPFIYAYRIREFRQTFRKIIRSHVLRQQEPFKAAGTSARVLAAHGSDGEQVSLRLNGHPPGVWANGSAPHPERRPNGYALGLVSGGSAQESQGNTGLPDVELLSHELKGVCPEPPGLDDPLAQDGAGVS

For the compound `Cc1nc2nc(N[C@@H](C)c3cccnc3)nc(C(=O)N3CC(NC(=O)C(C)(C)C)C3)c2s1` [Example 64, (S)—N-(1-(2-Methyl-5-((1-(pyridin-3-yl)ethyl)amino)thiazolo[4,5-d]pyrimidine-7-carbonyl)azetidin-3-yl)pivalamide], the IC50 was greater than 1000 nM in experiment [1], 100 to 1000 nM in experiment [2], 100 to 1000 nM in experiment [3] and less than 100 nM in experiment [4].

As for `Cc1nc2nc(N[C@@H](C)c3cncc(F)c3)nc(C(=O)N3CC[C@@H](O)C3)c2s1` [Example 7, (5-(((S)-1-(5-Fluoropyridin-3-yl)ethyl)amino)-2-methylthiazolo[4,5-d]pyrimidin-7-yl)((R)-3-hydroxypyrrolidin-1-yl)methanone], the IC50 was greater than 1000 nM in experiment [1], less than 100 nM in experiment [2], greater than 1000 nM in experiment [3] and 100 to 1000 nM in experiment [4].

Regarding `Cc1nc2nc(N[C@@H](C)c3cccnc3)nc(C(=O)N3CC(NC(=O)NC4CCCC4)C3)c2s1` [Example 79, 1-Cyclopentyl-3-[1-[2-methyl-5-[[(S)-1-(3-pyridyl)ethyl]amino]thiazolo[4,5-d]pyrimidine-7-carbonyl]azetidin-3-yl]urea], the IC50 in experiment [1] is greater than 1000 nM; in experiment [2], less than 100 nM; in experiment [3], 100 to 1000 nM; in experiment [4], less than 100 nM.

Consider `Cc1nc2nc(N[C@@H](C)c3cncc(F)c3)nc(C(=O)N3CC[C@@H](CO)C3)c2s1` [Example 49, (5-(((S)-1-(5-Fluoropyridin-3-yl)ethyl)amino)-2-methylthiazolo[4,5-d]pyrimidin-7-yl)((R)-3-(hydroxymethyl)pyrrolidin-1-yl)methanone], for which the IC50 in experiment [1] is greater than 1000 nM; in experiment [2] it was less than 100 nM; in experiment [3], greater than 1000 nM; in experiment [4] it was greater than 1000 nM.

Take `Cc1nc2nc(N[C@@H](C)c3cccnc3)nc(C(=O)N3CC[C@H](O)C3)c2s1` [Example 18, ((S)-3-Hydroxypyrrolidin-1-yl)(2-methyl-5-(((S)-1-(pyridin-3-yl)ethyl)amino)thiazolo[4,5-d]pyrimidin-7-yl)methanone]: the IC50 in experiment [1] is greater than 1000 nM; in experiment [2], less than 100 nM; in experiment [3] it was greater than 1000 nM; in experiment [4] it was greater than 1000 nM.

Turning to `Cc1cc(C)cc(C(=O)NC2CN(C(=O)c3nc(N[C@@H](C)c4cccnc4)nc4nc(C)sc34)C2)c1` [Example 83, 3,5-Dimethyl-N-[1-[2-methyl-5-[[(S)-1-(3-pyridyl)ethyl]amino]thiazolo[4,5-d]pyrimidine-7-carbonyl]azetidin-3-yl]benzamide], the IC50 in experiment [1] was greater than 1000 nM; in experiment [2], less than 100 nM; in experiment [3], greater than 1000 nM; in experiment [4], less than 100 nM.

For `Cc1nc2nc(N[C@@H](C)c3cncc(F)c3)nc(C(=O)NC[C@@H]3CCOC3)c2s1` [Example 13, 5-(((S)-1-(5-Fluoropyridin-3-yl)ethyl)amino)-2-methyl-N—(((S)-tetrahydrofuran-3-yl)methyl)thiazolo[4,5-d]pyrimidine-7-carboxamide], the IC50 was 100 to 1000 nM in experiment [1], less than 100 nM in experiment [2], 100 to 1000 nM in experiment [3] and 100 to 1000 nM in experiment [4].

For `Cc1nc2nc(N[C@@H](C)c3cncc(F)c3)nc(C(=O)N3CC(NC(=O)C(C)(C)C)C3)c2s1` [Example 37, (S)—N-(1-(5-((1-(5-Fluoropyridin-3-yl)ethyl)amino)-2-methylthiazolo[4,5-d]pyrimidine-7-carbonyl)azetidin-3-yl)pivalamide], the IC50 was greater than 1000 nM in experiment [1], less than 100 nM in experiment [2], less than 100 nM in experiment [3] and less than 100 nM in experiment [4].

Consider `Cc1nc2nc(N[C@@H](C)c3cncc(F)c3)nc(C(=O)N3CC(NC(=O)C4CCOCC4)C3)c2s1` [Example 68, (S)—N-(1-(5-((1-(5-Fluoropyridin-3-yl)ethyl)amino)-2-methylthiazolo[4,5-d]pyrimidine-7-carbonyl)azetidin-3-yl)tetrahydro-2H-pyran-4-carboxamide], for which the IC50 in experiment [1] is greater than 1000 nM; in experiment [2], 100 to 1000 nM; in experiment [3], 100 to 1000 nM; in experiment [4] it was less than 100 nM.

Regarding `Cc1nc2nc(N[C@@H](C)c3cncc(F)c3)nc(C(=O)N3CC[C@H](CO)C3)c2s1` [Example 50, (5-(((S)-1-(5-Fluoropyridin-3-yl)ethyl)amino)-2-methylthiazolo[4,5-d]pyrimidin-7-yl)((S)-3-(hydroxymethyl)pyrrolidin-1-yl)methanone], the IC50 in experiment [1] was greater than 1000 nM; in experiment [2] it was less than 100 nM; in experiment [3] it was greater than 1000 nM; in experiment [4], 100 to 1000 nM.

On to `COC[C@H]1CCN(C(=O)c2nc(N[C@@H](C)c3cncc(F)c3)nc3nc(C)sc23)C1` [Example 48, (5-(((S)-1-(5-Fluoropyridin-3-yl)ethyl)amino)-2-methylthiazolo[4,5-d]pyrimidin-7-yl)((S)-3-(methoxymethyl)pyrrolidin-1-yl)methanone], for which the IC50 in experiment [1] is greater than 1000 nM; in experiment [2] it was less than 100 nM; in experiment [3], greater than 1000 nM; in experiment [4], 100 to 1000 nM.

Consider `Cc1nc2nc(N[C@@H](C)c3cncc(F)c3)nc(C(=O)NCCc3ccc(S(N)(=O)=O)cc3)c2s1` [Example 31, (S)-5-((1-(5-Fluoropyridin-3-yl)ethyl)amino)-2-methyl-N-(4-sulfamoylphenethyl)thiazolo[4,5-d]pyrimidine-7-carboxamide], for which the IC50 in experiment [1] is greater than 1000 nM; in experiment [2], less than 100 nM; in experiment [3], greater than 1000 nM; in experiment [4] it was greater than 1000 nM.

Take `Cc1nc2nc(N[C@@H](C)c3cncc(F)c3)nc(C(=O)N3CC(NC(=O)Nc4ccccc4)C3)c2s1` [Example 65, (S)-1-(1-(5-((1-(5-Fluoropyridin-3-yl)ethyl)amino)-2-methylthiazolo[4,5-d]pyrimidine-7-carbonyl)azetidin-3-yl)-3-phenylurea]: the IC50 in experiment [1] is greater than 1000 nM; in experiment [2], 100 to 1000 nM; in experiment [3], 100 to 1000 nM; in experiment [4], less than 100 nM.

Regarding `Cc1nc2nc(N[C@@H](C)c3cncc(F)c3)nc(C(=O)NC[C@H]3CCOC3)c2s1` [Example 14, 5-(((S)-1-(5-Fluoropyridin-3-yl)ethyl)amino)-2-methyl-N—(((R)-tetrahydrofuran-3-yl)methyl)thiazolo[4,5-d]pyrimidine-7-carboxamide], the 50% inhibitory concentration (IC50) in experiment [1] is 100 to 1000 nM; in experiment [2], less than 100 nM; in experiment [3] it was greater than 1000 nM; in experiment [4], greater than 1000 nM.

`Cc1nc2nc(N[C@@H](C)c3cncc(F)c3)nc(C(=O)NC[C@H](C)O)c2s1` [Example 5, 5-(((S)-1-(5-Fluoropyridin-3-yl)ethyl)amino)-N—((S)-2-hydroxypropyl)-2-methylthiazolo[4,5-d]pyrimidine-7-carboxamide]: the IC50 in experiment [1] is 100 to 1000 nM; in experiment [2], less than 100 nM; in experiment [3], 100 to 1000 nM; in experiment [4], greater than 1000 nM.

As for `Cc1nc2nc(N[C@@H](C)c3cncc(F)c3)nc(C(=O)N3CC(NC(=O)C4CCCC4)C3)c2s1` [Example 55, (S)—N-(1-(5-((1-(5-Fluoropyridin-3-yl)ethyl)amino)-2-methylthiazolo[4,5-d]pyrimidine-7-carbonyl)azetidin-3-yl)cyclopentanecarboxamide], the IC50 in experiment [1] is greater than 1000 nM; in experiment [2] it was less than 100 nM; in experiment [3], less than 100 nM; in experiment [4] it was less than 100 nM.

As for `Cc1nc2nc(N[C@@H](C)c3cncc(F)c3)nc(C(=O)N3CC(NC(=O)C4CCC4)C3)c2s1` [Example 56, (S)—N-(1-(5-((1-(5-Fluoropyridin-3-yl)ethyl)amino)-2-methylthiazolo[4,5-d]pyrimidine-7-carbonyl)azetidin-3-yl)cyclobutanecarboxamide], the IC50 was greater than 1000 nM in experiment [1], less than 100 nM in experiment [2], less than 100 nM in experiment [3] and less than 100 nM in experiment [4].
